How the values were obtained:
KRAS G12C in H358 cells = target: T1, KRAS G12C in H358 cells (Homo sapiens, UniProt P01116, G12C); experiment: H358 Cell Activity Assay (Raf-1 RBD capture of active Ras, MSD); format: cell-based; details: 6 hours treatment
T1 construct: endogenous in cells; host or cells: H358
Method: Compounds presented in the present invention lead to the accumulation of the GDP bound Ras upon treatment of human cancer cell line.
The accumulation of the GDP-bound KRAS G12C in cellular environment was measured based on the principle that KRAS G12C only binds to its downstream kinase; Raf-1 (MAP Kinase Kinase Kinase), when in its active-GTP bound state. In this state, Ras binded to a domain of Raf-1 kinase referred to as the Ras Binding Domain (RBD).
H358 cells were grown in RPMI 1640 medium (Gibco 11875) supplemented with 10% fetal bovine serum and 1% penicillin/streptomycin. Cells were seeded in 96-well tissue culture plates at a density of 40,000 cells/well and allowed to attach for 16-24 hours. Test compounds were prepared as a 10 mM stock in DMSO and serially diluted in 100% DMSO using a 3-fold dilution scheme. An intermediate 5× concentrated plate in complete growth medium was made and 25 μl/well was added to the 100 μl of cells for a final concentration of 0.1% DMSO. Each concentration of exemplary compound was tested in duplicate. The negative control wells were cells with control inhibitor at 10 μM, and the positive control wells were cells without drugs, DMSO only. Plates were incubated for 6 hours at 37° C., 5% CO2. Following treatment, cells were washed 3× with ice-cold PBS and 100 μl/well ice-cold 1× Assay/Lysis. Buffer with protease inhibitors was added (25 mM HEPES, pH 7.5, 150 mM NaCl, 1% NP-40, 10 mM MgCl2, 1 mM EDTA, 2% Glycerol). Following lysis samples were frozen at −80° C.
Raf-1 RBD (LJIC-1988A1) was diluted to 100 ng/well in PBS and 5 μl/well was spot coated onto MSD high bind SECTOR plates (L15XB). Plates were incubated at room temperature for 1 hour on an orbital shaker. Plates were washed with PBS/0.05% Tween-20 and 50 μl/well of thawed lysate samples were added, followed by 50 μl of 1% MSD Blocker A in PBS/0.05% Tween-20 (R93BA). Plates were incubated for 1 hour on an orbital shaker and washed with PBS/0.05% Tween-20. 25 μl/well of Anti-pan-Ras Antibody (Cell Biolabs 244003) diluted 1:3000 was added in 1% MSD Blocker A solution and plates were incubated for 1 hour on an orbital shaker and washed with PBS/0.05% Tween-20. SULFO-TAG goat anti-mouse secondary antibody (MSD R32AC) was diluted 1:500 in MSD Blocker A solution and added at 25 μL/well. Plates were incubated for 1 hour on an orbital shaker and washed with PBS/0.05% Tween-20. 150 μl/well of Read Buffer T (MSD R92TC) diluted 1:3 in H2O was added and plates were read on a Meso Scale Discovery Sector Imager S600.
KRAS signal was normalized to maximum inhibition and DMSO control values, and IC50 values were generated using a 4 parameter fit of the dose response curve. The decrease in IC50 reflects that the exemplary compound lead to a higher level of accumulation of GDP-bound KRAS G12C than another exemplary compounds at specific timepoint of treatment of cancer cell line.

[1] = target: T2, GDP-loaded kRas (1-169) G12C, C51S, C80L, C118S (Homo sapiens, UniProt P01116, C118S/C51S/C80L/G12C); experiment: Mass Spectrometry Reactivity Assay (MSRA), covalent adduct with kRas G12C; format: binding; details: 0.5 h at room temperature; 5 μM KRas protein; typical final concentration of the compounds 10 μM
T2 construct: GDP-loaded kRas (1-169) G12C, C51S, C80L, C118S

[2] = target: T3, KRAS G12C in MiaPaCa2 cells (Homo sapiens, UniProt P01116, G12C); experiment: MiaPaCa2 Cell Activity Assay (Raf-1 RBD capture of active Ras, MSD); format: cell-based; details: MIAPaCa-2 cells, 6 hours treatment; assay limit is 30.0 μM
T3 construct: endogenous in cells; host or cells: MiaPaCa2
Procedure, shortened: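 Readout is MSD electrochemiluminescence of pan-Ras bound to Raf-1 RBD, measuring GTP-loaded KRAS G12C in MiaPaCa2 lysates. Cells were exposed to compound for 6 h at 37° C in 0.1% DMSO, duplicate points. IC50 by 4-parameter fit after normalization to DMSO and maximum inhibition.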

IC50 (KRAS G12C in H358 cells): 0.102 µM | % Modification (0.5 h) [1]: 72% | IC50 [2]: 0.068 µM
SMILES: C=CC(=O)N1CCN(c2nc(N3CC(N(C)C)C3)nc3c2C[C@@H](C)[C@H](c2c(C)c(Cl)cc4[nH]ncc24)C3)CC1 [Example F14, 1-(4-{(6R,7R)-7-(6-chloro-5-methyl-1H-indazol-4-yl)-2-[3-(dimethylamino)azetidin-1-yl]-6-methyl-5,6,7,8-tetrahydroquinazolin-4-yl}piperazin-1-yl)prop-2-en-1-one]
